Data as given in patent US9682940B2, “Indazole derivatives useful as CB-1 inverse agonists” (Janssen Pharmaceutica NV, priority 2015, dated 2017).

Legend:
[1] = target: Human CB2R (Cannabanoid receptor 2) (Homo sapiens (Human), UniProt P34972); experiment: CB-2 in vitro cAMP (HTRF) assay in HEK-293 cells; format: cell-based; conditions: HEK-293 cells stably transfected with human CB2R, 250 nM Forskolin, mean where tested more than once, read-out: CB-2 (HEK_cAMP) EC50
How it was run: (§1)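 HEK-293 cells stably expressing human CB1 or CB2 plated overnight, then tested in HBSS/5 mM HEPES/0.1% BSA with 0.5 mM IBMX and forskolin (1.5 μM working dilution). Intracellular cAMP quantified by competitive HTRF immunoassay (d2-cAMP, cryptate anti-cAMP) against a cAMP standard curve; compounds as 1/3 serial dilutions from 10 mM DMSO stocks.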

[2] = target: Human CB1R (Cannabanoid receptor 1) (Homo sapiens (Human), UniProt P21554); experiment: CB-1 in vitro cAMP (HTRF) assay in HEK-293 cells; format: cell-based; conditions: HEK-293 cells stably transfected with human CB1R, 250 nM Forskolin, mean where tested more than once, read-out: CB-1 (HEK_cAMP) EC50
Sequence of Human CB1R (Cannabanoid receptor 1) (P21554 whole entry): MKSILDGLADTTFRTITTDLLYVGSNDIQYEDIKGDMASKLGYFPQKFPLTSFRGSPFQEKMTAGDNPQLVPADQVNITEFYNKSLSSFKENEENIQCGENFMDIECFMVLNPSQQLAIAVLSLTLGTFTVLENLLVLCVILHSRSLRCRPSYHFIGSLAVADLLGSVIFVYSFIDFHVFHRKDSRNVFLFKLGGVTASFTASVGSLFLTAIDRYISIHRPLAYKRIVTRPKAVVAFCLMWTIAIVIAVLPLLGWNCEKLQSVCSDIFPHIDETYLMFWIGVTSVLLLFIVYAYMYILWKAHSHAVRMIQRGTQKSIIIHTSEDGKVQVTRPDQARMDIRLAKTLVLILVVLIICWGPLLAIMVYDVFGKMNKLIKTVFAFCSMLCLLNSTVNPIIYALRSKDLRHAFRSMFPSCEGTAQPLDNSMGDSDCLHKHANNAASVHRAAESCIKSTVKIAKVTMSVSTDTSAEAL
How it was run: as §1

Sequence of Human CB2R (Cannabanoid receptor 2) (P34972 whole entry): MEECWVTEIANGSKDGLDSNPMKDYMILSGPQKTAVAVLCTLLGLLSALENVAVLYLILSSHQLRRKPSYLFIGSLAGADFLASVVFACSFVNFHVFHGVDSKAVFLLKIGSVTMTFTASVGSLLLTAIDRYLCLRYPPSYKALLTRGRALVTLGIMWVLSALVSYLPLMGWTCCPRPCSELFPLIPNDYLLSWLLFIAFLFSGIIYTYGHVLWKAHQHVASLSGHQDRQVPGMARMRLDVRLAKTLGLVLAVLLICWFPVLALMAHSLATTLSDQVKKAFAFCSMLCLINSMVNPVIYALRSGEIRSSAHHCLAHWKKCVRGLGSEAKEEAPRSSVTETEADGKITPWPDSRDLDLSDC

Compound | EC50 [1] [nM] | EC50 [2] [nM]
CNC(=O)c1ccc(S(=O)(=O)N2CCC(c3c4cc(C(c5ccc(Cl)cc5)c5ccc(Cl)cc5)ccc4nn3C3CC3)CC2)cn1 [Compound 155, 5-(4-(5-(bis(4-chlorophenyl)methyl)-2-cyclopropyl-2H-indazol-3-yl)piperidin-1-ylsulfonyl)-N-methylpicolinamide] | > 10000 | 6
COc1ccc(S(=O)(=O)N2CCC(c3c4cc(C(c5ccc(Cl)cc5)c5ccc(Cl)cc5)ccc4nn3C3CC3)CC2)cc1 [Compound 152, 5-(bis(4-chlorophenyl)methyl)-2-cyclopropyl-3-(1-(4-methoxyphenylsulfonyl)piperidin-4-yl)-2H-indazole] | > 10000 | 17
O=C(O)c1ccc(CN2CCC(c3n[nH]c4ccc(C(c5ccc(Cl)cc5)c5ccc(Cl)cc5)cc34)CC2)cc1 [Compound 221] | > 42000 | 134
O=C(CCO)N1CCC(c2c3cc(C(c4ccc(Cl)cc4)c4ccc(Cl)cc4)ccc3nn2C2CC2)CC1 [Compound 132] | > 10000 | 166
O=S(=O)(N1CCC(c2nn(C3CC3)c3ccc(C(c4ccc(Cl)cc4)c4ccc(Cl)cc4)cc23)CC1)C(F)(F)F [Compound 275] | > 10000 | 24
O=C(O)COc1ccc(N2CCC(c3n[nH]c4ccc(C(c5ccc(Cl)cc5)c5ccc(Cl)cc5)cc34)CC2)cc1 [Compound 211] | > 10000 | 4690
O=C(c1nnc[nH]1)N1CCC(c2n[nH]c3ccc(C(c4ccc(Cl)cc4)c4ccc(Cl)cc4)cc23)CC1 [Compound 144] | > 10000 | 5480
O=C(O)c1ccc(CN2CCC(c3nn(C4CC4)c4ccc(C(c5ccc(Cl)cc5)c5ccc(Cl)cc5)cc34)CC2)cc1 [Compound 209] | > 10000 | 68
NC(=O)COc1ccc(N2CCC(c3nn(C4CC4)c4ccc(C(c5ccc(Cl)cc5)c5ccc(Cl)cc5)cc34)CC2)cc1 [Compound 175] | > 10000 | 1130
O=C(O)c1ccc(N2CCC(c3n[nH]c4ccc(C(c5ccc(Cl)cc5)c5ccc(Cl)cc5)cc34)CC2)cc1 [Compound 213] | > 10000 | 367
Nc1ccc(C(c2ccc(Cl)cc2)c2ccc3[nH]nc(N4CCN(S(=O)(=O)C(F)(F)F)CC4)c3c2)cc1 (centres unmarked) [Compound 226] | 5500 | 8
O=C(O)c1cc(S(=O)(=O)N2CCC(c3c4cc(C(c5ccc(Cl)cc5)c5ccc(Cl)cc5)ccc4nn3C3CC3)CC2)ccc1Cl [Compound 168, 5-(4-(5-(bis(4-chlorophenyl)methyl)-2-cyclopropyl-2H-indazol-3-yl)piperidin-1-ylsulfonyl)-2-chlorobenzoic acid] | 7040 | 2
O=C(O)c1ccc(CN2CCC(c3c4cc(C(c5ccc(Cl)cc5)c5ccc(Cl)cc5)ccc4nn3C3CC3)CC2)cc1 [Compound 256, 4-((4-(5-(bis(4-chlorophenyl)methyl)-2-cyclopropyl-2H-indazol-3-yl)piperidin-1-yl)methyl)benzoic acid] | > 10000 | 30
NC(=O)c1ccc(S(=O)(=O)N2CCC(c3c4cc(C(c5ccc(Cl)cc5)c5ccc(Cl)cc5)ccc4nn3C3CC3)CC2)cc1F [Compound 167, 4-(4-(5-(bis(4-chlorophenyl)methyl)-2-cyclopropyl-2H-indazol-3-yl)piperidin-1-ylsulfonyl)-2-fluorobenzamide] | > 10000 | 12
O=C(O)Cn1nc(C2CCN(S(=O)(=O)C(F)(F)F)CC2)c2cc(C(c3ccc(Cl)cc3)c3ccc(Cl)cc3)ccc21 [Compound 73] | > 10000 | 762
NC(=O)c1ccc(C(c2ccc(Cl)cc2)c2ccc3[nH]nc(C4CCN(S(=O)(=O)C(F)(F)F)CC4)c3c2)cn1 (centres unmarked) [Compound 253] | 6930 | 11
NC(=O)c1cccc(CN2CCC(c3n[nH]c4ccc(C(c5ccc(Cl)cc5)c5ccc(Cl)cc5)cc34)CC2)c1 [Compound 220] | > 10000 | 27
O=C(O)COCCn1nc(N2CCN(S(=O)(=O)C(F)(F)F)CC2)c2cc(C(c3ccc(Cl)cc3)c3ccc(Cl)cc3)ccc21 [Compound 52] | > 10000 | 499
NS(=O)(=O)c1ccc(C(=O)N2CCC(c3nn(CCO)c4ccc(C(c5ccc(Cl)cc5)c5ccc(Cl)cc5)cc34)CC2)cc1 [Compound 72] | > 10000 | 39
NC(=O)COc1cccc(N2CCC(c3c4cc(C(c5ccc(Cl)cc5)c5ccc(Cl)cc5)ccc4nn3C3CC3)CC2)c1 [Compound 195, 2-(3-(4-(5-(bis(4-chlorophenyl)methyl)-2-cyclopropyl-2H-indazol-3-yl)piperidin-1-yl)phenoxy)acetamide] | 6990 | 32
NC(=O)c1csc(CS(=O)(=O)N2CCC(c3nn(C4CC4)c4ccc(C(c5ccc(Cl)cc5)c5ccc(Cl)cc5)cc34)CC2)c1 [Compound 235] | > 10000 | 22
O=S(=O)(c1cccc(C(F)(F)F)c1)N1CCC(c2n[nH]c3ccc(C(c4ccc(Cl)cc4)c4ccc(Cl)cc4)cc23)CC1 [Compound 59] | > 10000 | 374

Compound | EC50 [1] [nM] | EC50 [2] [nM]
O=C(O)c1cccc(S(=O)(=O)N2CCC(c3c4cc(C(c5ccc(Cl)cc5)c5ccc(Cl)cc5)ccc4nn3C3CC3)CC2)c1 [Compound 116, 3-(4-(5-(bis(4-chlorophenyl)methyl)-2-cyclopropyl-2H-indazol-3-yl)piperidin-1-ylsulfonyl)benzoic acid] | 7990 | 5
O=C(O)c1ccccc1S(=O)(=O)N1CCC(c2nn(C3CC3)c3ccc(C(c4ccc(Cl)cc4)c4ccc(Cl)cc4)cc23)CC1 [Compound 87] | > 10000 | 6740
NC(=O)c1cccc(C(=O)N2CCC(c3nn(C4CC4)c4ccc(C(c5ccc(Cl)cc5)c5ccc(Cl)cc5)cc34)CC2)c1 [Compound 98] | > 10000 | 64
Cn1nc(C2CCN(S(=O)(=O)c3ccc(C(=O)O)cc3)CC2)c2cc(C(c3ccc(Cl)cc3)c3ccc(Cl)cc3)ccc21 [Compound 62] | > 10000 | 845
NC(=O)CCS(=O)(=O)N1CCC(c2c3cc(C(c4ccc(Cl)cc4)c4ccc(Cl)cc4)ccc3nn2C2CC2)CC1 [Compound 134] | > 10000 | 216
O=C(OC1CCCC1)N1CCC(c2n[nH]c3ccc(C(c4ccc(Cl)cc4)c4ccc(Cl)cc4)cc23)CC1 [Compound 271] | > 10000 | 40
CNC(=O)c1ccc(S(=O)(=O)N2CCC(c3c4cc(C(c5ccc(Cl)cc5)c5ccc(Cl)cc5)ccc4nn3C3CC3)CC2)cc1OC [Compound 147, 4-(4-(5-(bis(4-chlorophenyl)methyl)-2-cyclopropyl-2H-indazol-3-yl)piperidin-1-ylsulfonyl)-2-methoxy-N-methylbenzamide] | > 10000 | 23
O=C(O)CCS(=O)(=O)N1CCC(c2nn(C3CC3)c3ccc(C(c4ccc(Cl)cc4)c4ccc(Cl)cc4)cc23)CC1 [Compound 109] | > 10000 | 729
NC(=O)c1ccc(N2CCC(c3n[nH]c4ccc(C(c5ccc(Cl)cc5)c5ccc(Cl)cc5)cc34)CC2)cc1 [Compound 208] | > 10000 | 68
NC(=O)CC(=O)N1CCC(c2nn(C3CC3)c3ccc(C(c4ccc(Cl)cc4)c4ccc(Cl)cc4)cc23)CC1 [Compound 90] | 3100 | 716
O=C(O)c1cccc(CN2CCC(c3n[nH]c4ccc(C(c5ccc(Cl)cc5)c5ccc(Cl)cc5)cc34)C2)c1 (centres unmarked) [Compound 272] | > 10000 | 333
NC(=O)c1ccccc1S(=O)(=O)N1CCC(c2nn(C3CC3)c3ccc(C(c4ccc(Cl)cc4)c4ccc(Cl)cc4)cc23)CC1 [Compound 93] | > 10000 | 533
O=C(O)c1ccc(C(=O)N2CCC(c3nn(C4CC4)c4ccc(C(c5ccc(Cl)cc5)c5ccc(Cl)cc5)cc34)CC2)cc1 [Compound 99] | > 10000 | 345
O=S(=O)(N1CCC(c2nn(-c3cccc(Cl)c3)c3ccc(C(c4ccc(Cl)cc4)c4ccc(Cl)cc4)cc23)CC1)C(F)(F)F [Compound 47] | > 10000 | 41
NC(=O)c1ccccc1C(=O)N1CCC(c2nn(C3CC3)c3ccc(C(c4ccc(Cl)cc4)c4ccc(Cl)cc4)cc23)CC1 [Compound 96] | > 10000 | 2240
O=C(O)c1ccc(C(c2ccc(Cl)cc2)c2ccc3[nH]nc(C4CCN(S(=O)(=O)C(F)(F)F)CC4)c3c2)cn1 (centres unmarked) [Compound 241] | > 10000 | 1630
NC(=O)c1ccc(C(=O)N2CCC(c3nn(C4CC4)c4ccc(C(c5ccc(Cl)cc5)c5ccc(Cl)cc5)cc34)CC2)cc1 [Compound 104] | > 10000 | 7
NC(=O)c1ccc(N2CCC(c3c4cc(C(c5ccc(Cl)cc5)c5ccc(Cl)cc5)ccc4nn3C3CC3)CC2)cc1 [Compound 194, 4-(4-(5-(bis(4-chlorophenyl)methyl)-2-cyclopropyl-2H-indazol-3-yl)piperidin-1-yl)benzamide] | > 10000 | 48
O=S(=O)(C(F)F)N1CCC(c2n[nH]c3ccc(C(c4ccc(Cl)cc4)c4ccc(Cl)cc4)cc23)CC1 [Compound 81] | > 10000 | 7320
NC(=O)COc1ccc(N2CCC(c3c4cc(C(c5ccc(Cl)cc5)c5ccc(Cl)cc5)ccc4nn3C3CC3)CC2)cc1 [Compound 197, 2-(4-(4-(5-(bis(4-chlorophenyl)methyl)-2-cyclopropyl-2H-indazol-3-yl)piperidin-1-yl)phenoxy)acetamide] | 7100 | 32
NC(=O)COc1cccc(N2CCC(c3nn(C4CC4)c4ccc(C(c5ccc(Cl)cc5)c5ccc(Cl)cc5)cc34)CC2)c1 [Compound 199] | > 10000 | 158
